According to PMC5980995, “An allostatic mechanism for M2 pyruvate kinase as an amino-acid sensor” (Biochemical Journal, 2018):

Tests used:
M1PYK [1] = target: T1, M1PYK (Homo sapiens, UniProt P14618); assay: PYK activity modulator screen (LDH-coupled enzymatic activity assay); assay type: biochemical; conditions: 2.5 mM ligand, sub-saturating PEP and ADP; for inhibition of M1PYK activity: pH 7.4, 37°C, relative to no ligand
T1 construct: made in house; host or cells: Escherichia coli BL21(DE3), pET28a
T1 sequence (P14618 1-531 isoform P14618-2): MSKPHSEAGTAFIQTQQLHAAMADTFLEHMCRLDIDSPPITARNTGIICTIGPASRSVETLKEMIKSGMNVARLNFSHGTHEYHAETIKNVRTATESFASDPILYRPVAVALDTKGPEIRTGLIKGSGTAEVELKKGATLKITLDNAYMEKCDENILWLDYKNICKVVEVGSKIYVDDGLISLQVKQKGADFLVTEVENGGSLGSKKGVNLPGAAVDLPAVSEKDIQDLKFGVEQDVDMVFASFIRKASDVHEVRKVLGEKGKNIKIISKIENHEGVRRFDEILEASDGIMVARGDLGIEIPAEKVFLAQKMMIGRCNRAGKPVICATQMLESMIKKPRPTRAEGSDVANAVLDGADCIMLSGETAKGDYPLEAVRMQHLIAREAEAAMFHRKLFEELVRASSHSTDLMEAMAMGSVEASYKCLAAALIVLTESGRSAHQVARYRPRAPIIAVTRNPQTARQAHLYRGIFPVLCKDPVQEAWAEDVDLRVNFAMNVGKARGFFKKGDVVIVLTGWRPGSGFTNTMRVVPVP
Procedure: (§1) For the identification of PYK activity modulators, enzymatic activity assays were performed as follows. A 1.9 µl aliquot of 20 mg/ml M1 or M2PYK in PBS-CM was added individually into […] of different amino acids at 5 mM in PBS-CM at pH 7.4 followed by an incubation at 37°C for 10 min. Then, the same volume of assay buffer [PBS-CM supplemented with 10 mM MgCl2, 100 mM KCl, 1 mM NADH, 40 µmol/min ml lactate dehydrogenase (LDH), as well as sub-saturating substrates PEP (1 mM) and ADP (0.8 mM)] was added into the protein solution and mixed (so the concentrations of all reagents were halved). The decrease in absorbance at 340 nm (the absorbance of NADH) was measured for 5 min at 37°C using a plate reader. PEP, ADP, LDH, NADH, FBP and all amino acids were from Sigma–Aldrich.
(§2) FBP was used as a positive control. The reaction was performed after pre-incubation in the presence of sub-saturating substrates in PBS at pH 7.4 at 37°C as described in Experimental Procedures.

M2PYK [2] = target: T2, M2PYK (Homo sapiens, UniProt P14618); design: method as in PMID 23530218; conditions: previously shown; cited from earlier work
T2 construct: and N-terminal domain (blue, residues 13–43. Residues 1–12, as well as additional residues from the His6-tagged construct); made in house; host or cells: Escherichia coli BL21(DE3), pET28a
T2 sequence (P14618 whole entry, the tested form may be a part): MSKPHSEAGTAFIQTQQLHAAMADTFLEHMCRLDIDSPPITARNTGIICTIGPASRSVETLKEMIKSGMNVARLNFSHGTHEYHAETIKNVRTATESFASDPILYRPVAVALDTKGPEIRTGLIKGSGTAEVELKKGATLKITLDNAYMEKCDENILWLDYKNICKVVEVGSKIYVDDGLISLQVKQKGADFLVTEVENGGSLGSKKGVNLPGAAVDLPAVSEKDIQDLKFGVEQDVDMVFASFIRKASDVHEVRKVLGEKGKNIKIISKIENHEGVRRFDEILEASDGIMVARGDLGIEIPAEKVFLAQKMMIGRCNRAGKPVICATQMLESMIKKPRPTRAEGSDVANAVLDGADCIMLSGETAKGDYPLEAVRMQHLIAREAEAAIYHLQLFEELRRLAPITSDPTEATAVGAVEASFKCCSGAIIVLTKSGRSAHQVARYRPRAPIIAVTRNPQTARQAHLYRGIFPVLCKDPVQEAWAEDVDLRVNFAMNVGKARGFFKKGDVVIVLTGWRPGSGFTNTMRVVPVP

M2PYK [3] = target: T2, M2PYK; assay: PYK activity modulator screen (LDH-coupled enzymatic activity assay); assay type: biochemical; conditions: 2.5 mM ligand, sub-saturating PEP and ADP; for activation of M2PYK activity: pH 7.4, 37°C, relative to no ligand
Procedure: as §1, §2

M2PYK [4] = tested on: M2PYK; design: method as in Chaneton et al. 2012; conditions: 4 nM M2PYK; ref Chaneton et al. 2012; cited from earlier work
cell proliferation = tested on: cell proliferation; design: method as in PMID 23530218; conditions: via activation or inhibition of M2PYK; cited from earlier work
M2PYK [5] = target: T2, M2PYK; assay: ELISA with anti-M2PYK antibody binding the C–C interface (monomer–tetramer equilibrium); conditions: 10 mM amino acid; 0.0039–2.5 µg/ml M2PYK; 1 h, pH 7.4, room temperature
Text: For the production of specific antibodies, a peptide immunogen (Supplementary Figure S1) specific for M2PYK was covalently conjugated with the carrier protein BSA, and injected into Balb/c female mice (6–7 weeks) at 2-week intervals. A mouse showing best selectivity for M2PYK was chosen as a spleen donor. After the production of a hybridoma, a cell line secreting a specific monoclonal antibody was screened and expanded. The specific monoclonal antibody against M2PYK was identified, purified and conjugated with horseradish peroxidase (HRP) for further ELISAs.
A stock solution of anti-His-tag antibody in carbonate buffer (pH 9.6) was coated onto wells at 50 µl/well at 4°C overnight. The wells were then blocked with 100 µl/well of PBS/Tween 20/3% BSA for 1 h at room temperature. Titrated M2PYK (2.5–0.0039 µg/ml) was incubated with or without ligands (10 mM for all amino acids and 1 mM for FBP) in PBS/Tween 20/3% BSA at room temperature for 1 h. Then, 100 µl of the solution was added to each prepared well for an incubation of 1 h. Afterwards, a 100 µl aliquot of PBS/Tween 20/3% BSA containing 4 µg/ml HRP-conjugated M2PYK antibody was added to each well and incubated for 1 h at room temperature. Electrochemiluminescence solution was added at 50 µl/well to develop the luminescence, which was read immediately with a plate reader. Three washes with PBS/Tween 20/3% BSA were performed between each step.
To investigate the effect of ligand binding on monomer–tetramer equilibrium at lower protein concentrations, we developed an ELISA assay. […] As the epitope is hidden in the tetrameric form of M2PYK, antibody binding on the C–C interface of M2PYK reflects the amount of monomer/dimer but not tetramer. The ELISA tests were performed using low concentrations of His6-M1/2PYK (0.0039–2.5 µg/ml) incubated with no ligand or 10 mM of each amino acid for 1 h in PBS-CM at pH 7.4 at room temperature. The incubated solutions were added to 96-well plates precoated with anti-His-tag antibodies. HRP-conjugated M2PYK antibodies were then incubated, followed by luminescence reading.

M2PYK [6] = target: T2, M2PYK; assay: Analytical gel chromatography of M2PYK oligomerisation/dissociation; conditions: 10 mM amino acid; 0.1 mg/ml M2PYK; PBS-CM pH 7.4, room temperature, 12 h
Procedure: Analytical gel chromatography was performed to characterise the oligomerisation/dissociation of M2PYK in the presence/absence of different amino acids. Aliquots of 400 µl of 0.1 mg/ml purified M2PYK were incubated with or without 10 mM amino acids in PBS-CM at room temperature at pH 7.4 overnight. After the incubation, samples were loaded independently onto a Superdex 200 PC 3.2/30 gel-filtration column. Samples of 25 µl were injected, and the column flow rate was maintained at 0.1 ml/min. Protein peaks were monitored using the absorbance at both 280 and 214 nm. The retention volumes for the M2PYK peaks were the same as those identified by SEC-MALS as monomer and tetramer peaks (using the same Superdex 200 column) in our previous study.
Analytical gel chromatography was used to investigate the effects of amino acids on the oligomerisation of M2PYK. […] Dissociation studies of M2PYK using SEC-MALS [13] and ultracentrifugation show the predominant forms in solution are tetramer and monomer.

M2PYK [7] = target: T2, M2PYK; assay: X-ray co-crystal structures of M2PYK with amino acids; conditions: wild-type M2PYK co-crystallised with the amino acid
Procedure: Single crystals of M2PYK were obtained at 17°C by vapour diffusion using the hanging-drop technique. The drops were formed by mixing 1.5 µl of wild-type M2PYK (20 mg/ml) solution containing ligands with 1.5 µl of reservoir solution (composed of 11–16% PEG 3350, 100 mM sodium cacodylate, 50 mM MgCl2, and 100 mM KCl). […] The pH for obtaining optimal crystals was 7.2–7.8. Before data collection, crystals were dipped in a freezing solution consisting of reservoir solution supplemented with the same concentration of ligands as in the original solution, as well as up to 35% PEG 3350, which eliminated the appearance of ice rings. Diffraction data were collected at the Diamond synchrotron radiation facility in Oxfordshire, U.K. on beamline I03 (for the M2PYK/Ala structure), I04-1 (for the M2PYK/Phe and the M2PYK/Trp structures), and I24 (for the M2PYK/Ser structure). All datasets were obtained from a single crystal flash-frozen in liquid nitrogen. A more detailed description and discussion of the crystallisation trials is in the Supplementary Material.
All four M2PYK structures were solved by molecular replacement using the program PHASER [40]. A monomer (Chain A) from the previously determined tetrameric structure of M2PYK (in R-state, PDB ID: 4B2D) served as the search model for the M2PYK/Ser structure. Chain A of a different M2PYK structure (in T-state, PDB ID: 4FXJ) was used as the search model for the M2PYK/Phe, M2PYK/Ala, and M2PYK/Trp structures. There were clear molecular replacement solutions for all structures. The resulting models were then subjected to 10 cycles of rigid body refinement using the program REFMAC [41]. Afterwards, manual changes were made to models to adjust side chain conformations and to add additional residues to the N terminus using COOT [42]. The models were then subjected to several rounds of translation libration screw refinement and restrained refinement, and ligand molecules were added where clear unbiased Fo–Fc electron density was observed. Water molecules were added to the model using COOT, and after several rounds of restrained refinement, R/Rfree values converged.

M2PYK [8] = target: T2, M2PYK; assay: M2PYK activity at sub-saturating PEP and ADP: amino-acid IC50/Ki and serine versus alanine/phenylalanine competition; assay type: biochemical; conditions: for Ki: calculated as IC50/2 (uncompetitive inhibitors), read-out: inhibitor constant (Ki) against M2PYK; for IC50: sub-saturating PEP and ADP, 0 µM serine, read-out: IC50 against M2PYK
Procedure: (§3) For the determination of kinetics of M2PYK in the absence/presence of amino acid modulators, enzymatic activity assays were performed as follows. A 5 µl aliquot of 0.002 mg/ml M2PYK in PBS-CM was incubated with different concentrations of amino acids in PBS-CM supplemented with 1 mM dithiothreitol at 37°C at pH 7.4 for 10 min. […] For these uncompetitive inhibitors the Ki values were calculated to be equal to IC50/2.
The decrease in absorbance at 340 nm was measured for 5 min at 37°C using a plate reader. […]

M2PYK [9] = target: T2, M2PYK; assay: Enzyme kinetics of M2PYK for PEP with saturating ADP in presence of amino acids; assay type: biochemical; conditions: kinetic curves at different inhibitor concentrations
Procedure: as §3, with “min. Then, the same volume of assay buffer [PBS-CM supplemented with 10 mM MgCl2, 100 mM KCl, 1 mM NADH, 40 µmol/min ml LDH, as well as saturating ADP (4 mM) and titrated substrate PEP (0.15–10 mM)] was added.” for “min.”
Values of the kinetic parameters (Vmax, K0.5(PEP), and nH) were determined by fitting the equation below to the data. V=Vmax×[PEP]^nH/K0.5nH+[PEP]^nH The Lineweaver–Burk plots were fit using the equation below: Y=K0.5nH+(1/x)^nH/Vmax×(1/x)^nH The Berkley Madonna software (http://www.berkeleymadonna.com/) was used to model approximate proportions of monomer and tetramer M2PYK at given total protein concentrations. The calculation was based on a simplified tetramer [T] monomer [M] equilibrium: [T]⇌[M]+[M]+[M]+[M]withKd=[M]^4/[T] […] The association rate constant was scaled to give a Kd of 0.9 µM, which was estimated from analytical gel chromatography results.
The kinetic curves are shown in Figure 4 and Supplementary Figure S4.

M1PYK [10] = tested on: M1PYK; design: method as in PMID 5166752, PMID 16634623; conditions: cited from earlier work

| Compound | inhibition of M1PYK activity (M1PYK [1]) [%] | activation of M2PYK activity (M2PYK [3]) [%] | oligomeric state of M2PYK at low protein concentration (M2PYK [5]) | effect on M2PYK oligomerisation (tetramer versus monomer) (M2PYK [6]) | Conformation of M2PYK tetramer in co-crystal structure (M2PYK [7]) | Ki (M2PYK [8]) [µM] | IC50 (M2PYK [8]) [µM] | mode of inhibition of M2PYK (M2PYK [9]) | also measured |
| --- | --- | --- | --- | --- | --- | --- | --- | --- | --- |
| N=C(N)NCCC[C@H](N)C(=O)O [arginine] | 10 | – | – | – | – | – | – | – | – |
| fructose 1,6-bisphosphate [FBP, reference compound] | – | ~40 | – | – | – | – | – | – | effect on M2PYK oligomerisation (M2PYK [2]): stabilised the tetrameric form; regulatory effect on M1PYK activity (M1PYK [1]): little or no regulatory effect; effect on M2PYK activity in end-point assay (M2PYK [4]): showed activation; effect on cell proliferation (cell proliferation): inhibits cell proliferation |
| N[C@@H](CO)C(=O)O [serine, L-serine] | – | ~30 | predominantly tetrameric | stabilised tetramers over monomers | R-state | – | – | – | M2PYK activity normalised to activity in absence of ligands (100%) (M2PYK [3]): higher than 120%; effect on M2PYK activity in end-point assay (M2PYK [4]): showed activation |
| N[C@@H](Cc1c[nH]c2ccccc12)C(=O)O [tryptophan, L-tryptophan] | – | – | predominantly tetrameric | stabilised tetramers over monomers | T-state | 222 | 445 | allosteric uncompetitive inhibitors | – |
| C[C@H](N)C(=O)O [alanine, L-alanine] | – | – | predominantly tetrameric | stabilised tetramers over monomers | T-state | 62 | 124 | allosteric uncompetitive inhibitors | M2PYK activity (M2PYK [8]; alanine 200–300 µM in the presence of serine ∼0.6 mM): ~65%; M2PYK activity (M2PYK [8]; alanine 200–300 µM, no serine): ~10% |
| NCC(=O)O [glycine] | 10 | – | – | – | – | – | – | – | – |
| NCCCC[C@H](N)C(=O)O [lysine] | 10 | – | – | – | – | – | – | – | – |
| N[C@@H](Cc1c[nH]cn1)C(=O)O [histidine] | – | ~30 | – | – | – | – | – | – | M2PYK activity normalised to activity in absence of ligands (100%) (M2PYK [3]): higher than 120% |
| N[C@@H](Cc1ccccc1)C(=O)O [phenylalanine, L-phenylalanine] | 10 | – | predominantly tetrameric | stabilised tetramers over monomers | T-state | 205 | 410 | allosteric uncompetitive inhibitors | regulatory effect on M1PYK enzymatic activity (M1PYK [10]): non-competitive inhibition; M2PYK activity (M2PYK [8]; phenylalanine at ∼0.2 mM, no serine): ~65%; M2PYK activity (M2PYK [8]; phenylalanine ∼0.2 mM in the presence of 0.6 mM serine): nearly full activity; effect on cell proliferation (cell proliferation): favours cell proliferation |
